Where a SMILES comes first, the peptide text is derived from it. Bridges are numbered along the chain shown (N, C = ends). [ ]: non-standard residue; d: D form. The star is where a group is joined. hPhe(3,5-F2-4-CF3) = N[C@@H](CCc1cc(F)c(C(F)(F)F)c(F)c1)C(=O)O; hPhe(3-Cl-4-CF3) = N[C@@H](CCc1ccc(C(F)(F)F)c(Cl)c1)C(=O)O; NPrPhe(4-CF3) = CCCN[C@@H](Cc1ccc(C(F)(F)F)cc1)C(=O)O; NMeGly(cPent) = CN[C@H](C(=O)O)C1CCCC1; Pro(4,4-F2) = O=C(O)[C@@H]1CC(F)(F)CN1; NMeNva(3-Et) = CCC(CC)[C@H](NC)C(=O)O; NMeD = CN[C@@H](CC(=O)O)C(=O)O; NMeL = CN[C@@H](CC(C)C)C(=O)O; NMeNva = CCC[C@H](NC)C(=O)O; Morpholide = C1CN(*)CCO1; NMeA = CN[C@@H](C)C(=O)O; Ac5c = NC1(C(=O)O)CCCC1; Aze = O=C(O)[C@@H]1CCN1; Ac4c = NC1(C(=O)O)CCC1; Sar = CNCC(=O)O

Assay [1] deals with GDP-bound NRAS wild-type protein (Homo sapiens, UniProt P01111). Kind of assay: Binding to NRAS by surface plasmon resonance (SPR), Single Cycle Kinetics. The conditions noted are these: for NRAS/KRAS (ratio of KD value for NRAS to KD value for KRAS) / NRAS/KRAS (ratio of KD value with respect to NRAS to KD value with respect to KRAS): GDP-bound NRAS wild-type vs GDP-bound KRAS wild-type.
Sequence of GDP-bound NRAS wild-type protein (P01111 whole entry): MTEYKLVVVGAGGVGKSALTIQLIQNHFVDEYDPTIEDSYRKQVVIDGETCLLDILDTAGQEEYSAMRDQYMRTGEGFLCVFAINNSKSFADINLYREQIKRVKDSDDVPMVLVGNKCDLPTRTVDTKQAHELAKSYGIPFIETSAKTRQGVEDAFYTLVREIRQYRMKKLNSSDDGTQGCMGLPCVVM

The target of assay [2] is GDP-bound HRAS wild-type protein (Homo sapiens, UniProt P01112). Kind of assay: Binding to HRAS by surface plasmon resonance (SPR), Single Cycle Kinetics. The conditions noted are these: for HRAS/KRAS (ratio of KD value for HRAS to KD value for KRAS) / HRAS/KRAS (ratio of KD value with respect to HRAS to KD value with respect to KRAS): GDP-bound HRAS wild-type vs GDP-bound KRAS wild-type.
Sequence of GDP-bound HRAS wild-type protein (P01112 whole entry): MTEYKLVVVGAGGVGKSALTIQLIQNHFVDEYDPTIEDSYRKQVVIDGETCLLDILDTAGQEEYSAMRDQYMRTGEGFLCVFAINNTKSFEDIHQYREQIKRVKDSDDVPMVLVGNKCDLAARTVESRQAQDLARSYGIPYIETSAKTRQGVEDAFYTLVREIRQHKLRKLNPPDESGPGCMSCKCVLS

Take `CCCN1C(=O)CN(C)C(=O)CN(C)C(=O)[C@H]([C@@H](C)CC)NC(=O)[C@H](CC(C)C)N(C)C(=O)C[C@@H](C(=O)N(C)C)NC(=O)[C@H](C2CCCC2)N(C)C(=O)C2(CCCC2)NC(=O)[C@@H]2CC(F)(F)CN2C(=O)[C@H](CCc2ccc(C(F)(F)F)c(Cl)c2)NC(=O)CN(C)C(=O)[C@@H]1Cc1ccc(C(F)(F)F)cc1` [PP0357] ([NMeL]I[Sar][Sar][NPrPhe(4-CF3)][Sar][hPhe(3-Cl-4-CF3)][Pro(4,4-F2)][Ac5c][NMeGly(cPent)]D-NMe2; lactam N-11): the “NRAS/KRAS (ratio of KD for GDP-bound NRAS wild-type to KD for KRAS)” value in assay [1] (KD ratio NRAS/KRAS, SPR) was “B (a compound having 3 or more and less than 10 is denoted as B)”. Also, the “HRAS/KRAS (ratio of KD for GDP-bound HRAS wild-type to KD for KRAS)” value in assay [2] (KD ratio HRAS/KRAS, SPR) was “B (a compound having 3 or more and less than 10 is denoted as B)”.

Regarding `CCO[C@@H]1C[C@H]2C(=O)NC3(CC(C)(C)C3)C(=O)N(C)[C@@H](C3CCCC3)C(=O)N(C)[C@H](C(=O)N3CCCCC3)CC(=O)N(C)[C@@H](CC)C(=O)N[C@@H]([C@@H](C)CC)C(=O)N(C)CC(=O)N(C)[C@H]3C/C=C\CCN(C3=O)[C@@H](Cc3ccc(C(F)(F)F)cc3)C(=O)N(C)CC(=O)N[C@@H](CCc3cc(F)c(C(F)(F)F)c(F)c3)C(=O)N2C1` [PP1945], the “NRAS/KRAS (ratio of KD value for NRAS to KD value for KRAS)” value in assay [1] (KD ratio, SPR) is on record as “AA (a compound having 20 or more is denoted as AA)”. In addition, the “HRAS/KRAS (ratio of KD value for HRAS to KD value for KRAS)” value in assay [2] (KD ratio, SPR) is “A (a compound having 10 or more and less than 20 is denoted as A)”.

Regarding `CCOC[C@H]1C(=O)N[C@@H]([C@@H](C)CC)C(=O)N(C2CC2)CC(=O)N(C)[C@H]2C/C=C\CCN(C2=O)[C@@H](Cc2ccc(C)cc2)C(=O)N(C)CC(=O)N[C@@H](CCc2ccc(C(F)(F)F)c(OC)c2)C(=O)N2C[C@H](OCC)C[C@H]2C(=O)NC2(CC(C)(C)C2)C(=O)N(C)[C@@H](CC(C)(C)C)C(=O)N(C)[C@H](C(=O)N(C)C)CC(=O)N1C` [PP2724], the “NRAS/KRAS (ratio of KD value with respect to GDP-bound NRAS wild-type protein to KD value with respect to KRAS)” value in assay [1] (KD ratio NRAS/KRAS, class symbols) is “A (a compound having 10 or more and less than 20 is denoted as A)”. In addition, in assay [2] (KD ratio HRAS/KRAS, class symbols), the “HRAS/KRAS (ratio of KD value with respect to GDP-bound HRAS wild-type protein to KD value with respect to KRAS)” value was “B (a compound having 3 or more and less than 10 is denoted as B)”.

`CCC[C@H]1C(=O)N[C@@H]([C@@H](C)CC)C(=O)N(C)[C@@H](C)C(=O)N2CC[C@H]2C(=O)N(CCC)[C@@H](Cc2ccc(C(F)(F)F)cc2)C(=O)N(C)CC(=O)N[C@@H](CCc2ccc(C(F)(F)F)c(Cl)c2)C(=O)N2CCC[C@H]2C(=O)NC2(CCC2)C(=O)N(C)[C@@H](C(CC)CC)C(=O)N(C)[C@H](C(=O)N2CCOCC2)CC(=O)N1C` [PP1959] ([NMeNva]I[NMeA][Aze][NPrPhe(4-CF3)][Sar][hPhe(3-Cl-4-CF3)]P[Ac4c][NMeNva(3-Et)][NMeD]-Morpholide; lactam N-11): the “NRAS/KRAS (ratio of KD value for NRAS to KD value for KRAS)” value in assay [1] (KD ratio, SPR) was “C (A compound having a KD ratio of 0.1 or more and less than 3 is denoted as C)”. Further, in assay [2] (KD ratio, SPR), the “HRAS/KRAS (ratio of KD value for HRAS to KD value for KRAS)” value is “B (a compound having 3 or more and less than 10 is denoted as B)”.

For `CCCN1C(=O)CN(C)C(=O)CN(C)C(=O)[C@H]([C@@H](C)CC)NC(=O)[C@H](CC(C)C)N(C)C(=O)C[C@@H](C(=O)N2CCOCC2)N(C)C(=O)[C@H](C2CCCC2)N(C)C(=O)C2(CCCC2)NC(=O)[C@@H]2CCCN2C(=O)[C@H](CCc2cc(F)c(C(F)(F)F)c(F)c2)NC(=O)CN(C)C(=O)[C@@H]1Cc1ccc(C(F)(F)F)cc1` [PP0753] ([NMeL]I[Sar][Sar][NPrPhe(4-CF3)][Sar][hPhe(3,5-F2-4-CF3)]P[Ac5c][NMeGly(cPent)][NMeD]-Morpholide; lactam N-11), the “NRAS/KRAS (ratio of KD value with respect to GDP-bound NRAS wild-type protein to KD value with respect to KRAS)” value in assay [1] (KD ratio NRAS/KRAS, SPR) is “B (a compound having 3 or more and less than 10 is denoted as B)”. In assay [2] (KD ratio HRAS/KRAS, SPR), the “HRAS/KRAS (ratio of KD value with respect to GDP-bound HRAS wild-type protein to KD value with respect to KRAS)” value was “C (A compound having a KD ratio of 0.1 or more and less than 3 is denoted as C)”.

Turning to `CCCOC[C@H]1C(=O)N[C@@H]([C@@H](C)OCC)C(=O)N2CCC[C@H]2C(=O)N(C)[C@H]2C/C=C\CCN(C2=O)[C@@H](Cc2ccc(C)cc2)C(=O)N(C)CC(=O)N[C@@H](CCc2cc(F)c(C(F)(F)F)c(F)c2)C(=O)N2C[C@H](OCC)C[C@H]2C(=O)NC2(CC(C)(C)C2)C(=O)N(C)[C@@H](C2CCCC2)C(=O)N(C)[C@H](C(=O)N(C)CC)CC(=O)N1C` [PP2432], the “NRAS/KRAS (ratio of KD value with respect to NRAS to KD value with respect to KRAS)” value in assay [1] (SPR) is “A (a compound having 10 or more and less than 20 is denoted as A)”. Further, in assay [2] (SPR), the “HRAS/KRAS (ratio of KD value with respect to HRAS to KD value with respect to KRAS)” value is “A (a compound having 10 or more and less than 20 is denoted as A)”.

As for `CC[C@H](C)[C@@H]1NC(=O)[C@H](COC)N(C)C(=O)C[C@@H](C(=O)N2CCOCC2)N(C)C(=O)[C@H](C2CCCC2)N(C)C(=O)C2(CCCC2)NC(=O)[C@@H]2CCCN2C(=O)[C@H](CCc2ccc(C(F)(F)F)c(Cl)c2)NC(=O)CN(C)C(=O)[C@H](Cc2ccc(F)cc2)N2CCCCC[C@@H](C2=O)N(C)C(=O)CN(C)C1=O` [PP0960], the “NRAS/KRAS (ratio of KD value with respect to NRAS to KD value with respect to KRAS)” value in assay [1] (KD ratio, SPR) is “B (a compound having 3 or more and less than 10 is denoted as B)”. For the same compound, the “HRAS/KRAS (ratio of KD value with respect to HRAS to KD value with respect to KRAS)” value in assay [2] (KD ratio, SPR) is “B (a compound having 3 or more and less than 10 is denoted as B)”.
